{"source": "patent US6716851B2", "about": "“Substituted 2-aryl-4-arylaminopyrimidines and analogs as activators or caspases and inducers of apoptosis and the use thereof” (Cytovia, Inc., priority 2000, dated 2004)", "system": "T-47D cells", "experiment": "Cell cycle arrest and apoptosis by propidium iodide flow cytometry in T-47D cells", "type": "cell-based, Human", "settings": "48 h", "procedure": "T-47D, a breast cancer cell line, was maintained and harvested as described in Example 221. 5×10^5 Cells were treated with 0.2 μM of 4-(3-methoxyanilino)-2-(2-pyridinyl)-6-(trifluoromethyl)pyrimidine for 48 h at 37° C. As a control, cells were also incubated with equivalent amount of solvent (DMSO). Cells were harvested at 1,200 rpm and then transferred to 12×75 mm polystyrene tubes. Cells were then resuspended in 500 μl of 1% Na Citrate, 0.1% Triton X-100, and 50 μg/ml of propidium iodide and incubated at room temperature for 30 min followed by flow cytometer analysis. All flow cytometry analyses were performed on FACScalibur (Becton Dickinson) using Cell Quest analysis software. The x-axis plotted the amount of fluorescence and the y-axis is plotted the number of cells with the indicated fluorescence. The T-47D control cell population profile is seen in FIG. 1A and the increase in G2/M DNA content cells that is seen when treated with 4-(3-methoxyanilino)-2-(2-pyridinyl)-6-(trifluoromethyl)pyrimidine at 0.2 μM is seen in FIG. 1B. An increase in the sub-diploid DNA content of cells (FIG. 1) is also seen to increase from 2% to 25% with compound treatment. The sub-diploid amount of DNA is indicative of apoptotic cells which have undergone DNA degradation or fragmentation.", "data": [{"compound": "COc1cccc(Nc2cc(C(F)(F)F)nc(-c3ccccn3)n2)c1", "note": "[Compound A, 4-(3-methoxyanilino)-2-(2-pyridinyl)-6-(trifluoromethyl)pyrimidine]", "values": [{"measurement": "sub-diploid DNA content of cells", "setting": "0.2 μM, control 2%", "result": 25, "unit": "%"}, {"measurement": "G1 population", "setting": "200 nM, versus control cells", "result": "reduction"}, {"measurement": "G2/M population (G2/M DNA content cells)", "setting": "200 nM, versus control cells", "result": "increase"}]}]}
